Laboratory results published in patent US6768007B2, “Substituted 3′,4′-di-O-camphanoyl-(+)-cis-khellactone analogs, compositions thereof, and methods for using thereof” (Panacos Pharmaceuticals, Inc., priority 2001, dated 2004).
Like-named read-outs stand apart in the source and are kept apart here.

Legend:
HIV-1 (IIIB isolate) = experiment: Anti-HIV activity in H9 lymphocytes (p24 antigen ELISA); assay type: cell-based; conditions: H-9 lymphocytes; for Anti-HIV Activity EC50: HIV-1 IIIB, p24 ELISA, day 5, average of at least two experiments; for anti-viral activity (in words): summary of Table 1; for Therapeutic Index (TI = IC50/EC50): ratio of IC50 to EC50
Protocol: (§1) The biological evaluation of HIV-1 inhibition was carried out according to established protocols, (Kashiwada, Y., et al., J. Med. Chem. 39:1016-1017 (1996); Hashimoto, F., et al., Bioorg. & Med. Chem. 5:2133-2143 (1997)). The T cell line, H9, was maintained in continuous culture log-phase growth in complete medium (RPMI 1640 with 10% fetal calf serum supplemented with L-glutamine at 5% CO2 and 37° C.). Test samples were first dissolved in dimethyl sulfoxide at a concentration of 10 mg/ml to generate master stocks with dilutions made into tissue culture media to generate working stocks. The following drug concentrations were used routinely for screening: 50, 5, and 0.5 μg/mL. For agents found to be active, additional dilutions were prepared for subsequent testing so that an accurate EC50 value (defined below) could be determined. As the test samples were being prepared, an aliquot of the H9 cell line was infected with HIV-1 (IIIB isolate) while a second aliquot was mock-infected with complete medium. […] An amount of virus equal to approximately 6.25×10^4 TCID50 was added to the first aliquot of 3.5×10^6H9 cells. The second aliquot received tissue culture medium only, and these mock-infected cells were used for toxicity determinations (IC50 defined below). After a 4 h incubation at 37° C. and 5% CO2, both cell populations were washed three times with fresh medium and then added to the appropriate wells of a 96-well plate containing various concentrations of the test drug or tissue culture medium (positive infected control/negative drug control). In addition, AZT was assayed during each experiment as a positive drug control. The plates were incubated at 37° C. and 5% CO2 for 5 days. Cell-free culture supernatants were collected on Day 5 for use in a p24 antigen-capture ELISA assay to determine virus replication. p24 is the core protein of HIV and therefore is an indirect measure of the amount of virus present in the culture supernatants. Toxicity was determined using a viable dye method (XTT) on mock-infected H9 cells that were treated with test sample, AZT or no drug. If a test sample suppressed viral replication and was toxic to less than 50% of the cells, its effects were reported in the following terms: IC50, the concentration of test sample which was toxic to 50% of the mock-infected H9 cells; EC50, the concentration of the test sample which was able to suppress HIV replication by 50%; and Therapeutic Index (TI), the ratio of IC50 to EC50.
(§2) Compounds of the present invention were assayed for anti-HIV activity according to the following assay procedures. The T cell line, H9, and the promonocytic cell line, U937, were maintained separately in continuous culture with complete medium (RPMI 1640 with 10% fetal calf serum) at 5% CO2 and 37° C. The cell lines were used in experiments only when in the logarithmic phase of growth, whereas uninfected peripheral blood mononuclear cells (PBMCs) were first stimulated with PHA (1 μg/mL) for three days. All cell targets were incubated with HIV-1 (IIIB isolate, 1×10^6 TCID50/mL) for one hour at 37° C. and 5% CO2. The cell lines and PBMCs were washed thoroughly to remove unadsorbed virions and resuspended at 4×10^5 cells/mL in complete medium or complete medium with 10% v/v interleukin 2 (IL-2), respectively. […] aliquots were placed into wells of 96-well tissue culture plates containing an equal volume of test compounds (diluted in the appropriate culture medium). The toxicity of each compound was assessed by determining the viability of compound-exposed uninfected cells after five days at 37° C. and 5% CO2. A p24 antigen ELISA assay was used to determine the level of virus released in the medium of the HIV-infected cultures. The p24 antigen assay used a HIV-1 anti-p24 specific monoclonal antibody as the capture antibody coated onto 96-well plates. […]

mock-infected H9 cells = experiment: Cytotoxicity in mock-infected (uninfected) H9 cells; assay type: cell-based
Protocol: as §1, §2

| Anti-HIV Activity EC50 (HIV-1 (IIIB isolate)) [µg/mL] | Compound | anti-viral activity (in words) (HIV-1 (IIIB isolate)) | Therapeutic Index (TI = IC50/EC50) (HIV-1 (IIIB isolate)) | Cytotoxicity IC50 (mock-infected H9 cells) [µg/mL] | Cytotoxicity IC50 (mock-infected H9 cells; uninfected H9 cells, five days, average of at least two experiments) [µg/mL] |
| --- | --- | --- | --- | --- | --- |
| 0.001 | Cc1cc(=O)oc2c3c(c(CN)cc12)OC(C)(C)[C@H](OC(=O)[C@@]12CC[C@@](C)(C(=O)O1)C2(C)C)[C@@H]3OC(=O)[C@@]12CC[C@@](C)(C(=O)O1)C2(C)C (relative stereo) [Compound 15, (3′R,4′R)-3′,4′-di-O-(S)-(−)-camphanoyl-6-aminomethyl-4-methyl-(+)-cis-khellactone] | most potent | 24,100 | 24.1 | – |
| 0.000119 | CC1(C)Oc2ccc3cc(C(Br)Br)c(=O)oc3c2[C@@H](OC(=O)[C@@]23CCC(C)(C(=O)O2)C3(C)C)[C@H]1OC(=O)[C@@]12CCC(C)(C(=O)O1)C2(C)C (relative stereo) [Compound 2, (3′R,4′R)-3′,4′-Di-O-(S)-(−)-camphanoyl-3-dibromomethyl-(+)-cis-khellactone] | most potent | 26,890 | 3.20 | – |
| 0.000188 | CC1(C)Oc2ccc3cc(CO)c(=O)oc3c2[C@@H](OC(=O)[C@@]23CCC(C)(C(=O)O2)C3(C)C)[C@H]1OC(=O)[C@@]12CCC(C)(C(=O)O1)C2(C)C (relative stereo) [Compound 10, (3′R,4′R)-3′,4′-Di-O-(S)-(−)-camphanoyl-3-hydroxymethyl-(+)-cis-khellactone] | most potent | 188,032 | 35.35 | – |
| 0.69 | CCN(CC)Cc1cc2ccc3c(c2oc1=O)[C@@H](OC(=O)[C@@]12CC[C@@](C)(C(=O)O1)C2(C)C)[C@@H](OC(=O)[C@@]12CC[C@@](C)(C(=O)O1)C2(C)C)C(C)(C)O3 (relative stereo) [Compound 16, (3′R,4′R)-3′,4′-Di-O-(S)-(−)-camphanoyl-3-diethylaminomethyl-(+)-cis-khellactone] | – | 62 | 43.01 | – |
| 0.0854 | CC1(C)Oc2ccc3cc(CBr)c(=O)oc3c2[C@@H](OC(=O)[C@@]23CC[C@@](C)(C(=O)O2)C3(C)C)[C@H]1OC(=O)[C@@]12CC[C@@](C)(C(=O)O1)C2(C)C (relative stereo) [Compound 1, (3′R,4′R)-3′,4′-Di-O-(S)-(−)-camphanoyl-3-bromomethyl-(+)-cis-khellactone] | – | 40 | 3.38 | – |
| 0.39 | CC1(C)Oc2ccc3cc(CN)c(=O)oc3c2[C@@H](OC(=O)[C@@]23CC[C@@](C)(C(=O)O2)C3(C)C)[C@H]1OC(=O)[C@@]12CC[C@@](C)(C(=O)O1)C2(C)C (relative stereo) [Compound 14, (3′R,4′R)-3′,4′-Di-O-(S)-(−)-camphanoyl-3-aminomethyl-(+)-cis-khellactone] | – | – | 32.81 | – |
| 0.025 | Cc1cc(=O)oc2c3c(c(CBr)cc12)OC(C)(C)[C@H](OC(=O)[C@@]12CC[C@@](C)(C(=O)O1)C2(C)C)[C@@H]3OC(=O)[C@@]12CC[C@@](C)(C(=O)O1)C2(C)C (relative stereo) [Compound 6, (3′R,4′R)-3′,4′-Di-O-(S)-(−)-camphanoyl-6-bromomethyl-4-methyl-(+)-cis-khellactone] | – | 1,000 | 25.00 | – |
| 0.045 | Cc1cn([C@H]2C[C@H](N=[N+]=[N-])[C@@H](CO)O2)c(=O)[nH]c1=O [AZT, reference compound] | – | 41,667 | 1875 | – |
| 0.000192 | Cc1c(CBr)c(=O)oc2c3c(ccc12)OC(C)(C)[C@H](OC(=O)[C@@]12CC[C@@](C)(C(=O)O1)C2(C)C)[C@@H]3OC(=O)[C@@]12CC[C@@](C)(C(=O)O1)C2(C)C (relative stereo) [Compound 3, (3′R,4′R)-3′,4′-Di-O-(S)-(−)-camphanoyl-3-bromomethyl-4-methyl-(+)-cis-khellactone] | most potent | 101,000 | 19.4 | – |
| 0.0176 | CC1(C)Oc2c(CBr)cc3ccc(=O)oc3c2[C@@H](OC(=O)[C@@]23CCC(C)(C(=O)O2)C3(C)C)[C@H]1OC(=O)[C@@]12CCC(C)(C(=O)O1)C2(C)C (relative stereo) [Compound 4, (3′R,4′R)-3′,4′-Di-O-(S)-(−)-camphanoyl-6-bromomethyl-(+)-cis-khellactone] | – | 113 | 1.99 | – |
| 0.000625 | Cc1cc(=O)oc2c3c(c(CO)cc12)OC(C)(C)[C@H](OC(=O)[C@@]12CCC(C)(C(=O)O1)C2(C)C)[C@@H]3OC(=O)[C@@]12CCC(C)(C(=O)O1)C2(C)C (relative stereo) [Compound 12, (3′R,4′R)-3′,4′-Di-O-(S)-(−)-camphanoyl-6-hydroxymethyl-4-methyl-(+)-cis-khellactone] | most potent | 30,900 | 19.3 | – |

| Compound | Anti-HIV Activity EC50 (HIV-1 (IIIB isolate)) [µg/mL] | anti-viral activity (in words) (HIV-1 (IIIB isolate)) | Therapeutic Index (TI = IC50/EC50) (HIV-1 (IIIB isolate)) | Cytotoxicity IC50 (mock-infected H9 cells) [µg/mL] | Cytotoxicity IC50 (mock-infected H9 cells; uninfected H9 cells, five days, average of at least two experiments) [µg/mL] |
| --- | --- | --- | --- | --- | --- |
| CC(=O)OCc1cc2c(C)cc(=O)oc2c2c1OC(C)(C)[C@H](OC(=O)[C@@]13CCC(C)(C(=O)O1)C3(C)C)[C@@H]2OC(=O)[C@@]12CCC(C)(C(=O)O1)C2(C)C (relative stereo) [Compound 9, (3′R,4′R)-3′,4′-Di-O-(S)-(−)-camphanoyl-6-acetoxymethyl-4-methyl-(+)-cis-khellactone] | 0.275 | – | 78.9 | 21.70 | – |
| COP(=O)(OC)OCc1cc2c(C)cc(=O)oc2c2c1OC(C)(C)[C@H](OC(=O)[C@@]13CCC(C)(C(=O)O1)C3(C)C)[C@@H]2OC(=O)[C@@]12CCC(C)(C(=O)O1)C2(C)C (relative stereo) [Compound 13, (3′R,4′R)-3′,4′-Di-O-(S)-(−)-camphanoyl-6-(dimethylphosphate)methyl-4-methyl-(+)-cis-khellactone] | 0.504 | – | 3.79 | – | 1.91 |
| CC(=O)OCc1cc2ccc3c(c2oc1=O)[C@@H](OC(=O)[C@@]12CCC(C)(C(=O)O1)C2(C)C)[C@@H](OC(=O)[C@@]12CCC(C)(C(=O)O1)C2(C)C)C(C)(C)O3 (relative stereo) [Compound 7, (3′R,4′R)-3′,4′-Di-O-(S)-(−)-camphanoyl-3-acetoxymethyl-(+)-cis-khellactone] | 0.00103 | most potent | 3,243 | 3.34 | – |
| CC(=O)OCc1c(C)c2ccc3c(c2oc1=O)[C@@H](OC(=O)[C@@]12CC[C@@](C)(C(=O)O1)C2(C)C)[C@@H](OC(=O)[C@@]12CC[C@@](C)(C(=O)O1)C2(C)C)C(C)(C)O3 (relative stereo) [Compound 8, (3′R,4′R)-3′,4′-Di-O-(S)-(−)-camphanoyl-3-acetoxymethyl-4-methyl-(+)-cis-khellactone] | 0.00012 | most potent | 157,000 | 18.80 | – |
